The test system of assay [1] is Nox1 phosphorylation in A7r5 rat aortic VSMCs. The experiment in a line: TNF-α-stimulated Nox1 phosphorylation, anti-p22phox IP / anti-STY Western blot, A7r5 VSMCs. In kind it is cell-based. To be noted: CalC pretreatment 100 nM, TNF-α 10 ng/mL 10 minutes. The method, then: Equal volumes of samples were pre-cleared with Protein G Dynabeads (10 μL/1.5 mg protein in lysate) for 30 minutes at 4° C., end-over-end rotation, followed by a quick spin at high speed, then placed on a magnetic rack for 1 minute. SNT was removed to a new tube on ice. The p22^phox/Nox1 complex was immunoprecipitated using anti-p22^phox antibody C-17 (1 μg/500 μg protein in lysate) and rotated for 45 minutes at 4° C. (Hanna et al., 2004). Next, 20 μL Protein G Dynabeads was added to each sample and rotated for 20 minutes at 4° C., followed by a quick spin at high speed, then placed on a magnetic rack 1 m. SNT was moved to a new tube on ice and frozen for later analysis. The Dynabead pellet was washed three times with 200 μL NP40 buffer, followed by addition of 15 μL twice with sample buffer (4% SDS, 20% glycerol, 10% 2-mercaptoethanol, 0.004% bromphenol blue, 0.125 M Tris HCl, pH 6.8). […] Samples were then analyzed by WB.
One quarter volume of 5× sample buffer (6 g SDS, 40% glycerol, 30% 2-mercaptoethanol, 383.3 mg dithiothreitol, 372 mg EDTA, 378.3 mg Tris, 50 mg bromphenol blue in 50 ml ddH2O, pH 6.8) was added to lysates. […] Phosphorylation of Nox1 residues was determined utilizing a phospho-serine/threonine/tyrosine (p-STY) antibody that reacts with these residues only under phosphorylated conditions (Zhang et al., 2010, Chen et al., 2006). […]

The subject of assay [2] is TNF-α-induced Nox1-dependent ROS production in WT VSMCs. The assay is described as follows: ROS detection by CM-H2DCF fluorescence in VSMCs. In kind it is cell-based, mouse. The note with it: CalC pretreatment, TNF-α 10 ng/mL 30 minutes. The protocol: C57 WT or Nox1^−/y VSMCs were seeded on glass chamber slides at 75% confluence, serum-starved in cell culture medium containing no FBS for 24 h, washed in phenol red-free DMEM, and incubated in 10 μM CM-H2DCFDA for 30 m, pretreated with CalC or DMSO, and treated with 10 ng/mL TNF-α for 30 minutes. The cells were then washed 3×100 μL cold PBS, fixed with 2% paraformaldehyde for 15 minutes, washed twice with PBS, incubated in 1 μM To-Pro-3 for 5 minutes in dark, and washed twice with PBS. The chambers were removed and cells were mounted in Vectashield and imaged by confocal microscopy.
500 μL Opti-MEM was added to a 60 mm gelatin-coated cell culture plate. To this siPKC-β or siControl was added (final concentration 200 nM), plus 12 μL RNAiMax. Plates were rocked and incubated for 20 minutes. Cells were detached by use of trypsin, which was quenched in 10% FBS containing no antibiotics, centrifuged at 500 g for 5 minutes, resuspended in 5 mL 10% FBS without antibiotics and counted. Cells were added to plate for a seeding density of 75%, and medium was added to a final volume of 3 mL. Cells were incubated for 5 hours at 37° C., then medium was changed to 10% FBS. The next day, cells were serum starved in medium containing no FBS for 24 hours. Cells were then prepared for analysis by WB, DCF fluorescence or migration assay.

For assay [3], the system named is NADPH oxidase activity in VSMC membrane fractions. The experiment in a line: ROS detection by lucigenin-enhanced chemiluminescence. In kind it is cell-based, rat. The note with it: 30 minute pre-incubation, 100 nM DPI or 100 μM CalC, TNF-α 10 ng/mL 10 minutes. The protocol: A7r5 rat aortic smooth muscle cells were seeded at 75% confluence in 10% FBS medium, infected with AdNox1GFP for 48 hours, serum-starved in 0.2% FBS medium for 24 hours. Cells were then subjected to a 30 minute pre-incubation with 100 nM DPI or 100 μM CalC or DMSO, then treated with 10 ng/mL TNF-α for 10 minutes, washed three times in cold PBS, and homogenized in Homogenization Buffer (0.25 M sucrose, 10 mM triethanolamine, 4% protease inhibitor cocktail, 0.1 M EDTA, pH 7.4) with a Tissue Tearor. Lucigenin was then added to a final concentration of 5 μM. Samples were then analyzed by a FB12 Chemiluminometer every 10 seconds for 5 minutes. Then NADPH was added to a final concentration of 100 μM and readings were taken for another 5 m. Average baseline value was subtracted from the average NADPH-stimulated value.

Another assay relates to WT VSMC migration. The assay is described as follows: Transwell migration assay to TNF-α. In kind it is cell-based, mouse. To be noted: CalC pretreatment 30 minutes, 5 hours migration. The protocol: WT or Nox1^−/y C57 mouse aortic VSMCs were pretreated with CalC or DMSO (vehicle) for 30 minutes, washed once with PBS, and cells were detached with trypsin, which was quenched with trypsin inhibitor. Cells were transferred to a conical tube, centrifuged at 500 g for 5 minutes. The SNT was aspirated, and cells were resuspended in 125 μL cell culture medium containing no FBS. Cell counts were obtained on a Beckman Z1 Coulter Particle Counter. Cells suspensions were diluted to a concentration of 1,000 cells/μL. 50 μL of the cell suspension was added to the upper chamber of a Costar Transwell Permeable Support (8.0 μm polycarbonate membrane, 6.5 mm insert). 500 μl medium containing no FBS with or without TNF-α was added to the lower chamber. […] Cells were fixed in 4% paraformaldehyde, membranes were removed from support with a scalpel and mounted in Vectashield plus DAPI, cover-slipped and five random fields from each membrane were imaged at 20× and the number of cells migrated to the bottom of the Transwell was counted. […]
500 μL Opti-MEM was added to a 60 mm gelatin-coated cell culture plate. […] Cells were detached by use of trypsin, which was quenched in 10% FBS containing no antibiotics, centrifuged at 500 g for 5 minutes, resuspended in 5 mL 10% FBS without antibiotics and counted. […] Cells were then prepared for analysis by WB, DCF fluorescence or migration assay.

The target in assay [4] is T1, NoxA1 activation domain (AD) peptide LEPMDFLGKAKVV (Homo sapiens, UniProt Q86UR1).
T1 construct: purchased ProImmune
The experiment in a line: Isothermal titration calorimetry peptide interaction. In kind it is binding. The note with it: ITC, 25° C., pH 7.4, n=3 independent experiments, ± standard deviation; read-out: Affinity (Kd) for the interaction with NoxA1 AD peptide. The method, then:
The affinity of the interaction between non-phosphorylated and phosphorylated Nox1 and NoxA1 was determined by isothermal titration calorimetry (ITC). Phosphorylated or non-phosphorylated peptides corresponding to amino acids KLKTQKIYF (SEQ ID NO:9) of Nox1 and a peptide corresponding to amino acids LEPMDFLGKAKVV (SEQ ID NO:10) of NoxA1 peptides were purchased from ProImmune. The peptides were resuspended in 20 mM Na2HPO4, 100 mM […], pH 7.4 to a final concentration of 800 μM (Nox1) and 20 μM (NoxA1). The peptides were degassed and ITC measurements recorded using a MicroCal VP-ITC System (GE Healthcare). 21 injections of Nox1 peptides into NoxA1 peptide were used, with 240 s spacing between events. The chamber was kept under constant stirring at 350 rpm and all experiments were performed at 25° C. […] The constant heat of dilution, as determined by the average of the last 3-5 injections, was subtracted and the data are analyzed using the single site binding model provided in the ITC analysis package. The values for affinity and stoichiometry from three experiments were averaged and shown±standard deviation.
(In ITC the heat of successive injections is recorded.)

Where no end group is shown, it is not given here. Bounds are passed on as bounds.

The values below come from patent US9951102B2, “Peptide inhibitor of Nox1 NADPH oxidase” (University of Iowa Research Foundation, priority 2014, dated 2018).

As to `COc1c(C[C@@H](C)OC(=O)Oc2ccc(O)cc2)c2c3c(C[C@@H](C)OC(=O)c4ccccc4)c(OC)c(=O)c4c(O)cc(OC)c(c5c(OC)cc(O)c(c1=O)c52)c43` [CalC, Calphostin C], the “TNF-α-stimulated Nox1 phosphorylation” value in assay [1] was “inhibited”. For the same compound, the “Nox1-dependent ROS production (CM-H2DCF fluorescence)” value in assay [2] is recorded as “abrogated”. Also, the “TNF-α-primed NADPH oxidase activity (lucigenin-enhanced chemiluminescence)” value in assay [3] is listed as “completely abolished”. Further, the “Migration of WT VSMCs to TNF-α” value in the assay with WT VSMC migration is “blocked”.
By Kd is commonly meant the constant that tells how readily two partners part at equilibrium. Regarding KLKTQKIYF [Nox1 peptide, KLKTQKIYF], in assay [4], the equilibrium dissociation constant (Kd) is above 100 µM.
As for `[Cl-].c1ccc2c(c1)[I+]c1ccccc1-2` [DPI, Diphenyleneiodoium chloride], the “TNF-α-primed NADPH oxidase activity (lucigenin-enhanced chemiluminescence)” value in assay [3] is “completely abolished”.
